# According to patent publication US12594267B2, “Capsid inhibitors for the treatment of HIV” (Gilead Sciences, Inc., priority 2018, dated 2026):
# Where two headings read alike, the source gives them in different places.
# Tests used:
# Type in all cases: cell-based, HIV-1
# [1] = test system: PI-resistant viruses; test: Cytopathic antiviral assay in MT-2 cells, PI-resistant viruses; conditions: Mutant/WT (HXB2D) EC50 ratio, mean ± s.d. of three experiments
# Procedure: (§1) The antiviral activity of the compound of Formula (a) was tested against a panel of known HIV-1 mutants resistant to HIV PIs (ATV and DRV), NRTIs (TFV and FTC), NNRTIs (RPV and EFV) or INSTIs (RAL, EVG and DTG) using a cytopathic antiviral assay in MT-2 cells. The compound of Formula (Ia) was fully active against all tested mutants resistant to PIs (Table 11), NRTIs (Table 12), NNRTIs (Table 13) or INSTIs (Table 14).
# [2] = test system: NNRTI-resistant viruses; test: Cytopathic antiviral assay in MT-2 cells, NNRTI-resistant viruses; conditions: Mutant/WT (HXB2D) EC50 ratio, mean ± s.d. of three experiments
# Procedure: as §1
# [3] = test system: INSTI-resistant viruses; test: Cytopathic antiviral assay in MT-2 cells, INSTI-resistant viruses; conditions: Mutant/WT (HXB2D) EC50 ratio, mean ± s.d. of three experiments
# Procedure: as §1
# [4] = test system: WT HXB2D; test: Cytopathic antiviral assay in MT-2 cells, wild type HXB2D; conditions: Human immunodeficiency virus 1, MT2, read-out: WT HXB2D EC50, MT-2 cells, mean ± s.d. of three experiments in triplicate
# Procedure: as §1
# [5] = test system: NRTI-resistant viruses; conditions: Mutant/WT (LAI) EC50 ratio, MT-2 cells, mean ± s.d. of three experiments
# Procedure: The antiviral activity of the compound of Formula (a) was tested against a panel of known HIV-1 mutants resistant to HIV PIs (ATV and DRV), NRTIs (TFV and FTC), NNRTIs (RPV and EFV) or INSTIs (RAL, EVG and DTG) using a cytopathic antiviral assay in MT-2 cells.
# [6] = INSTI-resistance panel (Table 14)
# [7] = NNRTI-resistance panel (Table 13)
SMILES,EC50 Fold-Change ([2]; K103N),EC50 Fold-Change ([2]; K103N/Y181C),EC50 Fold-Change ([2]; L100I/K103N),EC50 Fold-Change ([2]; Y181C),EC50 Fold-Change ([2]; Y188L),EC50 Fold-Change ([3]; E92Q/N155H),EC50 Fold-Change ([3]; E138K/Q148K),EC50 Fold-Change ([3]; G140S/Q148R),EC50 Fold-Change ([3]; N155H/Q148R),EC50 Fold-Change ([3]; R263K/M50I),EC50 Fold-Change ([3]; Y143R),"EC50 [4, 6]","EC50 [4, 7]",other results
"O=C1Nc2ccc(Cl)cc2[C@@](C#CC2CC2)(C(F)(F)F)O1 [EFV, efavirenz]",14.2 ± 2.7,>22.4,>22.4,3.3 ± 2.5,>22.4,1.2 ± 0.6,0.7 ± 0.3,1.0 ± 0.3,1.1 ± 0.5,1.3 ± 0.9,0.9 ± 0.6,1.37 ± 0.51 nM,2.23 ± 0.18 nM,EC50 Fold-Change ([1]; G48V/V82A/L90M): 0.9 ± 0.4; EC50 Fold-Change ([1]; G48V/V82S): 0.7 ± 0.1; EC50 Fold-Change ([1]; I50V): 3.0 ± 0.9; EC50 Fold-Change ([1]; I84V/L90M): 0.4 ± 0.1; EC50 ([4]; PI-resistance panel (Table 11)): 1.64 ± 0.55 nM
"Cc1nnc(C(=O)NC(C)(C)c2nc(C(=O)NCc3ccc(F)cc3)c(O)c(=O)n2C)o1 [RAL, raltegravir]",,,,,,>15.6,>15.6,>15.6,13.9 ± 2.2,1.6 ± 1.2,10.1 ± 1.2,6.41 ± 2.15 nM,,
"Cc1cc(/C=C/C#N)cc(C)c1Nc1ccnc(Nc2ccc(C#N)cc2)n1 [RPV, rilpivirine]",0.7 ± 0.3,3.2 ± 1.4,7.8 ± 2.6,5.9 ± 4.3,6.9 ± 1.3,,,,,,,,0.93 ± 0.23 nM,
"C[C@H](Cn1cnc2c(N)ncnc21)OCP(=O)(O)O [TFV, tenofovir]",,,,,,,,,,,,,,EC50 Fold-Change ([5]; 6TAMs): 3.0 ± 1.1; EC50 Fold-Change ([5]; K65R): 2.4 ± 1.0; EC50 Fold-Change ([5]; M184V): 0.9 ± 1.0
